The record followed here is US10392391B2 (Vertex Pharmaceuticals Incorporated, priority 2012, dated 2019).

The structures appear in SMILES notation. pKi: −log10 of the molar value.

ATR kinase (full-length ATR), sequence (Q13535 whole entry): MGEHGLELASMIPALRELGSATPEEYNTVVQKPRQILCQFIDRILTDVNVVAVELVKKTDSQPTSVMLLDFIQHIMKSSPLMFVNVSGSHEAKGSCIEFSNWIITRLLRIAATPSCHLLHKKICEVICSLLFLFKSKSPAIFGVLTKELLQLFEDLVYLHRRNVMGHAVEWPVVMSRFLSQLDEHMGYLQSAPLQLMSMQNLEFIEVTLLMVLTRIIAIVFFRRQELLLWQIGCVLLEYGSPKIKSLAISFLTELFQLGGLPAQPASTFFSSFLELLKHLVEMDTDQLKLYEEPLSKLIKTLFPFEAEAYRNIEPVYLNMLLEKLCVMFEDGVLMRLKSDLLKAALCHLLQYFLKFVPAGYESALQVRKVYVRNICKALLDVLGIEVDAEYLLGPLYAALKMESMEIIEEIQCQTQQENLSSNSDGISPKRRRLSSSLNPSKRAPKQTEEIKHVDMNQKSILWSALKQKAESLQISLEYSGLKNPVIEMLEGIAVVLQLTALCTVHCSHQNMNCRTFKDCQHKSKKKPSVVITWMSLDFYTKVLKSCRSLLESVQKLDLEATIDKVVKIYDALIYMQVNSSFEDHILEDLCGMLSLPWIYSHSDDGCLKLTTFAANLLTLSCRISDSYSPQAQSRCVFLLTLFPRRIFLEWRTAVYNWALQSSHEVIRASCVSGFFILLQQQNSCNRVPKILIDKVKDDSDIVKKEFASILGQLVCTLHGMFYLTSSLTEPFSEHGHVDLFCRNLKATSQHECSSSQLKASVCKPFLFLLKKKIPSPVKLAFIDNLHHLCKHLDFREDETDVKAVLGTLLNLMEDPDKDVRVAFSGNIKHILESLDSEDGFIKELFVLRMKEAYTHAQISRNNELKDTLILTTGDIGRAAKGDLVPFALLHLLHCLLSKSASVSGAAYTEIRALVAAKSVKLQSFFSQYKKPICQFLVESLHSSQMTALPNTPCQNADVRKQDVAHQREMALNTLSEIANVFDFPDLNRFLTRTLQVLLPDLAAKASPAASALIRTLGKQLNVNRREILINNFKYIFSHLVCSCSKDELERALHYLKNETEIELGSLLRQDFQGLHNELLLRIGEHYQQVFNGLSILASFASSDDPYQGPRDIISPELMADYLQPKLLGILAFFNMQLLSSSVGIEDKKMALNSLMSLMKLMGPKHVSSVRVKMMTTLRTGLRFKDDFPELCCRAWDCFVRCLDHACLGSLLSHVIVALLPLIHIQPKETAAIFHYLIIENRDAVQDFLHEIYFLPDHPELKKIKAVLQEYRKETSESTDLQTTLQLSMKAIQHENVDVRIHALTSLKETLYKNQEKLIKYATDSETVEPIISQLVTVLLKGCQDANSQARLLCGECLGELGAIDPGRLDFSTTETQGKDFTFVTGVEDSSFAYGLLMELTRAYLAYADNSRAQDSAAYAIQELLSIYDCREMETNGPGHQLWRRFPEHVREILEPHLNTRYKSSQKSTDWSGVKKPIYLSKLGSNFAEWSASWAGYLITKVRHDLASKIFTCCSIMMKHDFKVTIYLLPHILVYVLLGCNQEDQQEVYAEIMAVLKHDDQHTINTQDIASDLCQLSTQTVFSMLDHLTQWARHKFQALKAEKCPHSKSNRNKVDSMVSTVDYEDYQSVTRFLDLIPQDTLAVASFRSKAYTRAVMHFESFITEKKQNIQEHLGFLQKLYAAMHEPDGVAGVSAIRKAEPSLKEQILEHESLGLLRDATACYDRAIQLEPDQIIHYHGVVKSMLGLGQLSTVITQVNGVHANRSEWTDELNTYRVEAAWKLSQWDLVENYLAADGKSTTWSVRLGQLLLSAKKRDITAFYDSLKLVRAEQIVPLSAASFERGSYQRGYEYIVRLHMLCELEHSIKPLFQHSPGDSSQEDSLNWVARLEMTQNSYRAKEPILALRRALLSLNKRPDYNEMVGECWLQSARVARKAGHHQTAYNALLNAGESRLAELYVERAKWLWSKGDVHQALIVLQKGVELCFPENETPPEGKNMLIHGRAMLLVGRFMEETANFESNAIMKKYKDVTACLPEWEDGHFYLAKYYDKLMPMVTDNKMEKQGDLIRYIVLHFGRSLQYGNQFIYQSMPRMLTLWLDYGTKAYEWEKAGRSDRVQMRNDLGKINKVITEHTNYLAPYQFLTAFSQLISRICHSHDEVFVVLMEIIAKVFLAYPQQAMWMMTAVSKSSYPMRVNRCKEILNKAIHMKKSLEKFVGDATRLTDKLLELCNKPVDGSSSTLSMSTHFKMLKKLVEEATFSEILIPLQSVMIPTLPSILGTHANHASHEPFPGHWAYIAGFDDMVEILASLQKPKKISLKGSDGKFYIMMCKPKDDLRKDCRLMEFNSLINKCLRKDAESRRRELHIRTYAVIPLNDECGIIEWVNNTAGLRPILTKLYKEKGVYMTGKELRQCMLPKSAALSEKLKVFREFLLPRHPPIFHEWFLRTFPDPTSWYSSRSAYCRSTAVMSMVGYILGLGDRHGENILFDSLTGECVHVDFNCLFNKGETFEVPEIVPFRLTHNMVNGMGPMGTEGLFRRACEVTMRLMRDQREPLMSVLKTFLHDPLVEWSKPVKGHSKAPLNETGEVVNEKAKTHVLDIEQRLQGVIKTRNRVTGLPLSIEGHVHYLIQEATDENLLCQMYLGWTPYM

For this assay, the target named is ATR kinase (full-length ATR) (Homo sapiens (Human), UniProt Q13535). In words: ATR inhibition assay (radioactive-phosphate incorporation). It counts as biochemical. As to conditions: Ki(app), 5 nM full-length ATR, 10 μM ATP, 25° C. Summed up:
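Radiometric 33P incorporation by 5 nM full-length ATR into 800 μM target peptide with 10 μM [γ-33P]ATP, in 50 mM Tris/HCl pH 7.5, 10 mM MgCl2, 1 mM DTT, 7% DMSO, 25° C. Compound pre-incubated 10 minutes; reaction stopped after 24 hours, captured on phosphocellulose. Ki(app) from non-linear regression of initial rates.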
For orientation: pKi means −log10 of the Ki, conventionally taken in molar units. For `CCN1CCN(c2ccncc2NC(=O)c2c(N)nn3cc(F)cnc23)CC1` [I-N-17, 2-amino-N-(4-(4-ethylpiperazin-1-yl)pyridin-3-yl)-6-fluoropyrazolo[1,5-a]pyrimidine-3-carboxamide], the pKi was 6.00 to 8.00.
As for `Nc1nn2cc(Cl)cnc2c1C(=O)Nc1cnccc1O[C@@H]1CCCNC1` [I-O-81, (R)-2-amino-6-chloro-N-(4-(piperidin-3-yloxy)pyridin-3-yl)pyrazolo[1,5-a]pyrimidine-3-carboxamide], the negative-log Ki (pKi) was 6.00 to 8.00.
For `Nc1nn2cc(F)cnc2c1C(=O)Nc1cncc(F)c1N1CCC(N2CCCC2=O)CC1` [I-N-147, 2-amino-6-fluoro-N-(5-fluoro-4-(4-(2-oxopyrrolidin-1-yl)piperidin-1-yl)pyridin-3-yl)pyrazolo[1,5-a]pyrimidine-3-carboxamide], the pKi is 6.00 to 8.00.
Regarding `CN(C)C(=O)C1CCN(c2c(F)cncc2NC(=O)c2c(N)nn3cc(F)cnc23)CC1` [I-G-29, 2-amino-N-(4-(4-(dimethylcarbamoyl)piperidin-1-yl)-5-fluoropyridin-3-yl)-6-fluoropyrazolo[1,5-a]pyrimidine-3-carboxamide], the pKi was 6.00 to 8.00.
In the case of `Cc1ccn(-c2ccncc2NC(=O)c2c(N)nn3cc(F)cnc23)n1` [I-N-225, 2-amino-6-fluoro-N-(4-(3-methyl-1H-pyrazol-1-yl)pyridin-3-yl)pyrazolo[1,5-a]pyrimidine-3-carboxamide] it was 6.00 to 8.00.
Take `C[N+]1([O-])CCc2c(cncc2NC(=O)c2c(N)nn3cc(F)cnc23)C1` (centres unmarked) [I-C-9, 5-(2-amino-6-fluoropyrazolo[1,5-a]pyrimidine-3-carboxamido)-2-methyl-1,2,3,4-tetrahydro-2,7-naphthyridine 2-oxide]: the pKi is 6.00 to 8.00.
In the case of `Cc1ncc(-c2ccncc2NC(=O)c2c(N)nn3cc(F)cnc23)n1C` [I-C-77, 2-amino-N-(4-(1,2-dimethyl-1H-imidazol-5-yl)pyridin-3-yl)-6-fluoropyrazolo[1,5-a]pyrimidine-3-carboxamide] it was 6.00 to 8.00.
`Nc1nn2cc(F)cnc2c1C(=O)Nc1cnccc1N1CCN(S(=O)(=O)C2CCOCC2)CC1` [I-N-177, 2-amino-6-fluoro-N-(4-(4-((tetrahydro-2H-pyran-4-yl)sulfonyl)piperazin-1-yl)pyridin-3-yl)pyrazolo[1,5-a]pyrimidine-3-carboxamide]: the pKi was 6.00 to 8.00.
In the case of `Nc1nn2cc(F)cnc2c1C(=O)Nc1cnccc1N1CCC(CN2CCC(F)(F)C2)CC1` [I-N-197, 2-amino-N-(4-(4-((3,3-difluoropyrrolidin-1-yl)methyl)piperidin-1-yl)pyridin-3-yl)-6-fluoropyrazolo[1,5-a]pyrimidine-3-carboxamide] it was 6.00 to 8.00.
The figure for `Nc1nn2cc(F)cnc2c1C(=O)Nc1cncc(F)c1N1CCN(C(=O)CN2CCCC2)CC1` [I-N-187, 2-amino-6-fluoro-N-(5-fluoro-4-(4-(2-(pyrrolidin-1-yl)acetyl)piperazin-1-yl)pyridin-3-yl)pyrazolo[1,5-a]pyrimidine-3-carboxamide] is 6.00 to 8.00.
In the case of `CN1CC[C@@H](Oc2ccncc2NC(=O)c2c(N)nn3cc(Cl)cnc23)C1` [I-O-63, (R)-2-amino-6-chloro-N-(4-((1-methylpyrrolidin-3-yl)oxy)pyridin-3-yl)pyrazolo[1,5-a]pyrimidine-3-carboxamide], the pKi is 6.00 to 8.00.
For the compound `CN1CCC(C(=O)N2CCN(c3c(F)cncc3NC(=O)c3c(N)nn4cc(F)cnc34)CC2)C1` (centres unmarked) [I-N-156, 2-amino-6-fluoro-N-(5-fluoro-4-(4-(1-methylpyrrolidine-3-carbonyl)piperazin-1-yl)pyridin-3-yl)pyrazolo[1,5-a]pyrimidine-3-carboxamide], the pKi is 6.00 to 8.00.
As to `CN1CCN(C(=O)C2CCN(c3ccncc3NC(=O)c3c(N)nn4cc(F)cnc34)CC2)CC1` [I-G-1, 2-amino-6-fluoro-N-(4-(4-(4-methylpiperazine-1-carbonyl)piperidin-1-yl)pyridin-3-yl)pyrazolo[1,5-a]pyrimidine-3-carboxamide], the pKi was 6.00 to 8.00.
As to `Nc1nn2cc(F)cnc2c1C(=O)Nc1cncc(F)c1N1CCC(C(=O)N2CCN3CC[C@@H]2C3)CC1` [I-G-71, N-(4-(4-((5R)-1,4-diazabicyclo[3.2.1]octane-4-carbonyl)piperidin-1-yl)-5-fluoropyridin-3-yl)-2-amino-6-fluoropyrazolo[1,5-a]pyrimidine-3-carboxamide], the pKi was 6.00 to 8.00.
Turning to `COC(=O)[C@H]1CC[C@@H](Oc2ccncc2NC(=O)c2c(N)nn3cc(F)cnc23)CC1` [I-O-18, (1s,4s)-methyl 4-((3-(2-amino-6-fluoropyrazolo[1,5-a]pyrimidine-3-carboxamido)pyridin-4-yl)oxy)cyclohexanecarboxylate], the pKi is 6.00 to 8.00.
`CCn1cncc1-c1ccncc1NC(=O)c1c(N)nn2cc(F)cnc12` [I-C-80, 2-amino-N-(4-(1-ethyl-1H-imidazol-5-yl)pyridin-3-yl)-6-fluoropyrazolo[1,5-a]pyrimidine-3-carboxamide]: the pKi is 6.00 to 8.00.
For `Nc1nn2cc(F)cnc2c1C(=O)Nc1cnccc1-c1ccccn1` [I-C-60, N-([2,4′-bipyridin]-3′-yl)-2-amino-6-fluoropyrazolo[1,5-a]pyrimidine-3-carboxamide], the pKi was 6.00 to 8.00.
As for `Nc1nn2cc(F)cnc2c1C(=O)Nc1cncc(F)c1N1CCC(S(=O)(=O)N2CCN3CCC2CC3)CC1` [I-N-273, N-(4-(4-(1,4-diazabicyclo[3.2.2]nonan-4-ylsulfonyl)piperidin-1-yl)-5-fluoropyridin-3-yl)-2-amino-6-fluoropyrazolo[1,5-a]pyrimidine-3-carboxamide], the pKi was 6.00 to 8.00.
On to `Nc1nn2cc(F)cnc2c1C(=O)Nc1cncc(F)c1N1CCCCC1` [I-N-270, 2-amino-6-fluoro-N-(5-fluoro-4-(piperidin-1-yl)pyridin-3-yl)pyrazolo[1,5-a]pyrimidine-3-carboxamide], for which the pKi is 6.00 to 8.00.
For `Nc1nn2cc(F)cnc2c1C(=O)Nc1cncc(Cl)c1N1CCNCC1` [I-N-126, 2-amino-N-(5-chloro-4-(piperazin-1-yl)pyridin-3-yl)-6-fluoropyrazolo[1,5-a]pyrimidine-3-carboxamide], the pKi is 6.00 to 8.00.
For `CC(C)(O)C1CCN(c2ccncc2NC(=O)c2c(N)nn3cc(Cl)cnc23)CC1` [I-N-69, 2-amino-6-chloro-N-(4-(4-(2-hydroxypropan-2-yl)piperidin-1-yl)pyridin-3-yl)pyrazolo[1,5-a]pyrimidine-3-carboxamide], the pKi is 6.00 to 8.00.
With `Nc1nn2cc(F)cnc2c1C(=O)Nc1cncc(C2CC2)c1N1CCN([C@@H]2CCOC2)CC1` [I-N-119, (R)-2-amino-N-(5-cyclopropyl-4-(4-(tetrahydrofuran-3-yl)piperazin-1-yl)pyridin-3-yl)-6-fluoropyrazolo[1,5-a]pyrimidine-3-carboxamide], the pKi is 6.00 to 8.00.
`CN1CCOCC1C(=O)N1CCN(c2c(F)cncc2NC(=O)c2c(N)nn3cc(F)cnc23)CC1` (centres unmarked) [I-N-227, 2-amino-6-fluoro-N-(5-fluoro-4-(4-(4-methylmorpholine-3-carbonyl)piperazin-1-yl)pyridin-3-yl)pyrazolo[1,5-a]pyrimidine-3-carboxamide]: the pKi was 6.00 to 8.00.
The figure for `CN(C)CCOc1ccncc1NC(=O)c1c(N)nn2cc(Cl)cnc12` [I-O-48, 2-amino-6-chloro-N-(4-(2-(dimethylamino)ethoxy)pyridin-3-yl)pyrazolo[1,5-a]pyrimidine-3-carboxamide] is 6.00 to 8.00; for `Nc1nn2cc(F)cnc2c1C(=O)Nc1cnccc1N1CCN([C@@H]2CCOC2)CC1` [I-N-10, (R)-2-amino-6-fluoro-N-(4-(4-(tetrahydrofuran-3-yl)piperazin-1-yl)pyridin-3-yl)pyrazolo[1,5-a]pyrimidine-3-carboxamide] it is 6.00 to 8.00; for `CN1CCN(c2c(Cl)cncc2NC(=O)c2c(N)nn3cc(Cl)cnc23)CC1` [I-N-41, 2-amino-6-chloro-N-(5-chloro-4-(4-methylpiperazin-1-yl)pyridin-3-yl)pyrazolo[1,5-a]pyrimidine-3-carboxamide] it is 6.00 to 8.00.
As for `CCC(C#N)c1cnc2c(C(=O)Nc3cnccc3OC)c(N)nn2c1` (centres unmarked) [I-O-20, 2-amino-6-(1-cyanopropyl)-N-(4-methoxypyridin-3-yl)pyrazolo[1,5-a]pyrimidine-3-carboxamide], the pKi was 6.00 to 8.00.
For `CC1(N2CCN(C(=O)C3CCN(c4c(F)cncc4NC(=O)c4c(N)nn5cc(F)cnc45)CC3)CC2)COC1` [I-G-92, 2-amino-6-fluoro-N-(5-fluoro-4-(4-(4-(3-methyloxetan-3-yl)piperazine-1-carbonyl)piperidin-1-yl)pyridin-3-yl)pyrazolo[1,5-a]pyrimidine-3-carboxamide], the pKi was 6.00 to 8.00.
As to `Cc1nonc1N1CCN(c2ccncc2NC(=O)c2c(N)nn3cc(F)cnc23)CC1` [I-N-260, 2-amino-6-fluoro-N-(4-(4-(4-methyl-1,2,5-oxadiazol-3-yl)piperazin-1-yl)pyridin-3-yl)pyrazolo[1,5-a]pyrimidine-3-carboxamide], the pKi is 6.00 to 8.00.
With `N#CC1CN(C(=O)C2CCN(c3ccncc3NC(=O)c3c(N)nn4cc(F)cnc34)CC2)C1` [I-G-81, 2-amino-N-(4-(4-(3-cyanoazetidine-1-carbonyl)piperidin-1-yl)pyridin-3-yl)-6-fluoropyrazolo[1,5-a]pyrimidine-3-carboxamide], the pKi is 6.00 to 8.00.
In the case of `Nc1nn2cc(F)cnc2c1C(=O)Nc1cncc(F)c1N1CCCC1` [I-N-246, 2-amino-6-fluoro-N-(5-fluoro-4-(pyrrolidin-1-yl)pyridin-3-yl)pyrazolo[1,5-a]pyrimidine-3-carboxamide], the pKi was 6.00 to 8.00.
`CN(C)C1CCN(C2CCN(c3ccncc3NC(=O)c3c(N)nn4cc(Cl)cnc34)CC2)C1` (centres unmarked) [I-N-106, 2-amino-6-chloro-N-(4-(4-(3-(dimethylamino)pyrrolidin-1-yl)piperidin-1-yl)pyridin-3-yl)pyrazolo[1,5-a]pyrimidine-3-carboxamide]: the pKi was 6.00 to 8.00.
